Here are results for 22 compounds from ChEMBL document CHEMBL1131256, “Discovery of a novel series of potent and selective substrate-based inhibitors of p60c-src protein tyrosine kinase: conformational and topographical constraints in peptide design” (J Med Chem, 1998).

In data set [1] the target is Proto-oncogene tyrosine-protein kinase Src (Homo sapiens, UniProt P12931). In words: Inhibition of c-Src tyrosine kinase.
The target of data set [2] is Tyrosine-protein kinase Lck (Homo sapiens, UniProt P06239). In words: Inhibition of p56 Lck kinase against 100 uM cdc2 substrate.
Chain of Tyrosine-protein kinase Lck (P06239 whole entry): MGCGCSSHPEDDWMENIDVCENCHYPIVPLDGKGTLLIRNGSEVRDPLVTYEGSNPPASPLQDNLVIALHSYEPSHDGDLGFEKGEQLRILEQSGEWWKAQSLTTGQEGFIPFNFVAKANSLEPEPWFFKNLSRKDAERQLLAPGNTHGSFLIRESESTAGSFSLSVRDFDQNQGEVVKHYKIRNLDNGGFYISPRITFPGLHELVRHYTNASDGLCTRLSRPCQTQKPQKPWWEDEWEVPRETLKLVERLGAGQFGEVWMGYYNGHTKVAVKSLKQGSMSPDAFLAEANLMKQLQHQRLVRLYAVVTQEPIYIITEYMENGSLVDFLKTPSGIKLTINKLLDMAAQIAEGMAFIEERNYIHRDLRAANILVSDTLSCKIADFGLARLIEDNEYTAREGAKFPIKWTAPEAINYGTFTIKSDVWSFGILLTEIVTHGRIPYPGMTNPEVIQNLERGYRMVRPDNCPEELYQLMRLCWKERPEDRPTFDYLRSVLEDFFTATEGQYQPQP
The target of data set [3] is Tyrosine-protein kinase Lyn (Homo sapiens, UniProt P07948). As to the kind of experiment: Inhibition of Lyn kinase against 100 uM cdc2 substrate.
Chain of Tyrosine-protein kinase Lyn (P07948 whole entry): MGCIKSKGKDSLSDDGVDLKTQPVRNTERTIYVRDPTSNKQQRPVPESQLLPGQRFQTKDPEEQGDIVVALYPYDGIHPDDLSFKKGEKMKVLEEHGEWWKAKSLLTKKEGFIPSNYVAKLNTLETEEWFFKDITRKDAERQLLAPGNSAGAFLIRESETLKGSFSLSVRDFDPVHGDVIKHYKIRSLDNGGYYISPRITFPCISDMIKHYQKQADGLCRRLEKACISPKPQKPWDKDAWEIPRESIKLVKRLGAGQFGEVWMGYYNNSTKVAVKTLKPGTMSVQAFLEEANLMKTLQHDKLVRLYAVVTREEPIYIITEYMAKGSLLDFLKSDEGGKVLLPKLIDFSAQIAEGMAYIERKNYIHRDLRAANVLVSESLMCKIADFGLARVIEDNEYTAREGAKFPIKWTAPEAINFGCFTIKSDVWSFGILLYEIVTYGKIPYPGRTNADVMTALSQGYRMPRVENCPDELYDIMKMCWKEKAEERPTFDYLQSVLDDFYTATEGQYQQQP
For data set [4], the system named is CC[C@H](C)[C@H](NC(=O)[C@@H](N)Cc1ccc(O)cc1)C(=O)N[C@@H](Cc1ccc(O)cc1)C(=O)NCC(=O)N[C@@H](CO)C(=O)N[C@@H](Cc1ccccc1)C(=O)N[C@@H](CCCCN)C(N)=O. As to the kind of experiment: Inhibition of c-Src tyrosine kinase against 55 uM YIYGSFK-NH2 substrate. To be noted: Homo sapiens.

Broadly, the IC50 is the concentration needed to halve the response being measured. Compound `CC(=O)N[C@@H](Cc1ccc(O)cc1)C(=O)N[C@@H]1C(=O)N[C@@H](Cc2ccc(O)cc2)C(=O)NCC(=O)N[C@@H](CO)C(=O)N[C@@H](Cc2ccccc2)C(=O)N[C@H](C(=O)N[C@@H](CCCCN)C(=O)N[C@@H](CCCN=C(N)N)C(N)=O)CSSC1(C)C` had an IC50 in data set [1] of 6.5 µM.

Compound `CC(C)(S)[C@H](NC(=O)[C@@H](N)Cc1ccc(O)cc1)C(=O)N[C@@H](Cc1ccc2ccccc2c1)C(=O)NCC(=O)N[C@@H](CO)C(=O)N[C@@H](Cc1ccccc1)C(=O)N[C@@H](CS)C(=O)N[C@@H](CCCCN)C(=O)N[C@@H](CCCCN)C(N)=O` displayed an IC50 in data set [1] of 2.7 µM. Take `C[C@H](c1ccc2ccccc2c1)[C@H]1NC(=O)[C@H](NC(=O)[C@@H](N)Cc2ccc(O)cc2)C(C)(C)SSC[C@@H](C(=O)N[C@@H](CCCCN)C(=O)N[C@@H](CCCNC(=N)N)C(N)=O)NC(=O)[C@H](Cc2ccccc2)NC(=O)[C@H](CO)NC(=O)CNC1=O`: the IC50 in data set [2] came to 470 µM.

Regarding `CC(=O)N[C@@H]1C(=O)N[C@@H](Cc2ccc(O)cc2)C(=O)NCC(=O)N[C@@H](CO)C(=O)N[C@@H](Cc2ccccc2)C(=O)N[C@H](C(=O)N[C@@H](CCCCN)C(=O)N[C@@H](CCCCN)C(N)=O)CSSC1(C)C`, the IC50 in data set [1] was 20 µM. The same measure, in the same setting: the figure for `CC1(C)SSC[C@@H](C(=O)N[C@@H](CCCCN)C(=O)N[C@@H](CCCNC(=N)N)C(N)=O)NC(=O)[C@H](Cc2ccccc2)NC(=O)[C@H](CO)NC(=O)CNC(=O)[C@H](Cc2ccc(O)cc2)NC(=O)[C@H]1NC(=O)[C@@H](N)Cc1ccc(O)cc1` is 1.2 µM; for `CC(C)(S)[C@H](NC(=O)[C@@H](N)Cc1ccc(O)cc1)C(=O)N[C@@H](Cc1ccc(O)cc1)C(=O)NCC(=O)N[C@@H](CO)C(=O)N[C@@H](Cc1ccccc1)C(=O)N[C@@H](CS)C(=O)N[C@@H](CCCCN)C(=O)N[C@@H](CCCCN)C(N)=O` it is 5.3 µM; for `CC(=O)N[C@@H](Cc1ccc(O)cc1)C(=O)N[C@@H]1C(=O)N[C@@H](Cc2ccc(O)cc2)C(=O)NCC(=O)N[C@@H](CO)C(=O)N[C@@H](Cc2ccccc2)C(=O)N[C@H](C(=O)N[C@@H](CCCCN)C(=O)N[C@@H](CCCCN)C(N)=O)CSSC1(C)C` it is 26 µM. `CC1(C)SSC[C@@H](C(=O)N[C@@H](CCCNC(=N)N)C(N)=O)NC(=O)[C@H](Cc2ccccc2)NC(=O)[C@H](CO)NC(=O)CNC(=O)[C@H](Cc2ccc3ccccc3c2)NC(=O)[C@@H]1NC(=O)[C@@H](N)Cc1ccc(O)cc1` had an IC50 in data set [1] of 3.3 µM. For the compound `C[C@@H](c1ccc2ccccc2c1)[C@H]1NC(=O)[C@H](NC(=O)[C@@H](N)Cc2ccc(O)cc2)C(C)(C)SSC[C@@H](C(=O)N[C@@H](CCCCN)C(=O)N[C@@H](CCCNC(=N)N)C(N)=O)NC(=O)[C@H](Cc2ccccc2)NC(=O)[C@H](CO)NC(=O)CNC1=O`, the IC50 in data set [2] turned out to be 260 µM.

With `CC1(C)SSC[C@@H](C(=O)N[C@@H](CCCCN)C(=O)N[C@@H](CCCNC(=N)N)C(N)=O)NC(=O)[C@H](Cc2ccccc2)NC(=O)[C@H](CO)NC(=O)CNC(=O)[C@H](Cc2ccc(O)c(I)c2)NC(=O)[C@@H]1NC(=O)[C@@H](N)Cc1ccc(O)cc1`, the IC50 in data set [3] was above 800 µM; in data set [2] it was 11 µM.

Compound `CC[C@H](C)[C@@H]1NC(=O)[C@@H](N)CSSC[C@@H](C(=O)N[C@@H](CCCCN)C(=O)N[C@@H](CCCCN)C(=O)O)NC(=O)[C@H](Cc2ccccc2)NC(=O)[C@H](CO)NC(=O)CNC(=O)[C@H](Cc2ccc(O)cc2)NC1=O` yielded an IC50 in data set [1] of 2.7 µM. That is a single-digit micromolar value. The compound `C[C@@H](c1ccc2ccccc2c1)[C@@H]1NC(=O)[C@H](NC(=O)[C@@H](N)Cc2ccc(O)cc2)C(C)(C)SSC[C@@H](C(=O)N[C@@H](CCCCN)C(=O)N[C@@H](CCCNC(=N)N)C(N)=O)NC(=O)[C@H](Cc2ccccc2)NC(=O)[C@H](CO)NC(=O)CNC1=O` yielded an IC50 in data set [2] of 260 µM. In turn, `C[C@H]1NC(=O)[C@H](Cc2ccc(O)cc2)NC(=O)[C@@H](NC(=O)[C@@H](N)Cc2ccc(O)cc2)C(C)(C)SSC[C@@H](C(=O)N[C@@H](CCCCN)C(=O)N[C@@H](CCCCN)C(N)=O)NC(=O)[C@H](Cc2ccccc2)NC(=O)[C@H](CO)NC1=O` showed an IC50 in data set [1] of 18 µM. In other words, the double-digit micromolar range. Still for that read-out and setting: the figure for `CC1(C)SSC[C@@H](C(=O)N[C@@H](CCCCN)C(N)=O)NC(=O)[C@H](Cc2ccccc2)NC(=O)[C@H](CO)NC(=O)CNC(=O)[C@H](Cc2ccc(O)cc2)NC(=O)[C@H]1NC(=O)[C@@H](N)Cc1ccc(O)cc1` is 6.7 µM. Same read-out and setting: the figure for `CC1(C)SSC[C@@H](C(=O)N[C@@H](CCCNC(=N)N)C(N)=O)NC(=O)[C@H](Cc2ccccc2)NC(=O)[C@H](CO)NC(=O)CNC(=O)[C@H](Cc2ccc(O)cc2)NC(=O)[C@H]1NC(=O)[C@@H](N)Cc1ccc(O)cc1` is 4.5 µM. In the case of `CC1(C)SSC[C@@H](C(=O)N[C@@H](CCCCN)C(=O)N[C@@H](CCCN=C(N)N)C(N)=O)NC(=O)[C@H](Cc2ccccc2)NC(=O)[C@H](CO)NC(=O)CNC(=O)[C@H](Cc2cc(I)c(O)c(I)c2)NC(=O)[C@@H]1NC(=O)[C@@H](N)Cc1ccc(O)cc1`, the results for the IC50 in data set [3] and in data set [2] were above 800 µM and 11 µM, respectively. With `C[C@H](c1ccc2ccccc2c1)[C@@H]1NC(=O)[C@H](NC(=O)[C@@H](N)Cc2ccc(O)cc2)C(C)(C)SSC[C@@H](C(=O)N[C@@H](CCCCN)C(=O)N[C@@H](CCCNC(=N)N)C(N)=O)NC(=O)[C@H](Cc2ccccc2)NC(=O)[C@H](CO)NC(=O)CNC1=O`, 220 µM corresponded to half-maximal inhibition in data set [2] (IC50). Turning to `CC(=O)N[C@@H]1C(=O)N[C@@H](Cc2ccc(O)cc2)C(=O)NCC(=O)N[C@@H](CO)C(=O)N[C@@H](Cc2ccccc2)C(=O)N[C@H](C(=O)N[C@@H](CCCCN)C(=O)N[C@@H](CCCN=C(N)N)C(N)=O)CSSC1(C)C`, inhibition in data set [1] was half-maximal at 11 µM (IC50). Usually Km stands for the substrate concentration at which the rate is half of its maximum. With “Proto-oncogene tyrosine-protein kinase Src (Homo sapiens) (from UniProt P12931)”, the Km in data set [4] was determined as 55 µM. `CC[C@H](C)[C@H](NC(=O)[C@@H](N)CS)C(=O)N[C@@H](Cc1ccc(O)cc1)C(=O)NCC(=O)N[C@@H](CO)C(=O)N[C@@H](Cc1ccccc1)C(=O)N[C@@H](CS)C(=O)N[C@@H](CCCCN)C(=O)N[C@@H](CCCCN)C(N)=O` registered an IC50 in data set [1] of 6.9 µM. This lies in the single-digit micromolar range.

In turn, `CC1(C)SSC[C@@H](C(=O)N[C@@H](CCCCN)C(=O)N[C@@H](CCCCN)C(N)=O)NC(=O)[C@H](Cc2ccccc2)NC(=O)[C@H](CO)NC(=O)CNC(=O)[C@H](Cc2ccc(O)cc2)NC(=O)[C@H]1N` came in with an IC50 in data set [1] of 14.4 µM. Same read-out and setting: the figure for `CC1(C)SSC[C@@H](C(=O)N[C@@H](CCCCN)C(=O)N[C@@H](CCCN=C(N)N)C(N)=O)NC(=O)[C@H](Cc2ccccc2)NC(=O)[C@H](CO)NC(=O)CNC(=O)[C@H](Cc2ccc(O)cc2)NC(=O)[C@H]1N` is 20 µM.
